Experimental data: US11505581B2, “Antigens and T cell epitopes from cockroach and methods of making and using same” (La Jolla Institute for Allergy and Immunology, priority 2015, dated 2022)

Tested on: PBMC
Experiment: ELISPOT (IFNγ, IL-5, IL-10, IL-17, IL-21) of PBMC expanded 14 days with Bla g extract, then stimulated with peptides or peptide pools
Assay type: cell-based, human
Design: key to Average Magnitude of Response: spot forming cells (SFC) per 10^6 PBMC; Response Rate per Subject: unit not given here; key to % (percentage of subjects responding to given antigen) / SFC (mean magnitude of response): “—” denotes no response
Settings: for Average Magnitude of Response / Response Rate per Subject: non-redundant epitopes, sensitized donors; for T cell reactivity (cytokine release) to NBGA, in words: sensitized subjects, 2-week extract stimulation
Experimental: PBMC Isolation and Cell Cultures: PBMC (peripheral blood mononuclear cells) were isolated from 450 mL (one unit) of blood by density gradient centrifugation as described and cryopreserved. For in vitro expansion of PBMC for peptide screening, cells were cultured in RPMI1640 (Omega Scientific)+5% human AB serum (Gemini Bioscience), GlutaMAX (Gibco), and penicillin/streptomycin (Omega Scientific) at 2×10^6 per mL, stimulated with 10 ug/mL Bla g extract (Greer), and incubated at 37° C. in 5% CO2. Every three days, IL-2 and IL-7 (10 U/mL) were added to the cultures. Cells were harvested for peptide screening at day 14.
ELISPOT Assays: Production of IFNγ, IL-5, IL-17, IL-10, and IL-21 (as representative of TH1, TH2, TH17, TR1, and […], respectively) in response to peptide stimulation was measured by ELISPOT as described previously. […] In brief, 1×10^5 cells per well were incubated with peptide, peptide pool, or Bla g extract (10, 5, and 10 ug/ml, respectively) on anti-lymphokine antibody coated ELISPOT plates (Millipore #MSIPS4510) for 22 hours. Subsequently, secondary anti-lymphokine antibodies were added and incubated for 2 hours, washed, and avidin-peroxidase complex added for 1 hour. Plates were washed and spots developed with 3-amino-9-ethylcarbazole (Sigma #A6926) and Vector Blue (Vector #SK-5300) for IFNγ/IL-5 and IL-10/IL-17 dual plates or TMB (Sigma #T0565) for single IL-21. Criteria for peptide pool positivity were at least 100 spot forming cells (SFC) per 10^6 PBMC, p<0.05, and stimulation index≥2. Criteria for peptide positivity were identical except with a threshold of 20 SFCs.
We synthetized overlapping peptide sets of 15 amino acids in length overlapping by 10 residues and covering the entire sequence of known Bla g Allergens, i.e. Bla g 1-7, 9 and 11, referred from hereafter collectively as BLAGA. A total of 809 BLAGA peptides were arranged in pools, encompassing on average 20 peptides.
To assess T cell reactivity, we utilized a strategy applied to the definition of epitopes from various allergen sources^15,16 utilizing in vitro stimulation with allergen extracts. Here, PBMC from each subject were stimulated in vitro with Bla g extract. After 14 days, pools of overlapping 15-mer peptides from the BLAGA were tested for responses, and positive pools deconvoluted to identify the specific epitopes. As readout, we utilized ELISPOT assays specific for IL-5, IFNγ, IL-10, IL-17 and IL-21, chosen as representative of TH2, TH1, TR1, TH17 and TFH reactivity, respectively.

[1] = Asthmatic (combines IA, MMA, SA)

Substance | Average Magnitude of Response | Response Rate per Subject | other results
MNITGSINLMFSQMY | 7.6 | 5.7 | 
NAIEFLNNIHDLLGI | 3.0 | 1.4 | 
NASAVIQEFLKTYKK | 5.0 | 2.9 | 
NDIEKRVPFSHDDRL (listed as Blattella germanica) | 72.8 | 15.7 | 
NGGYLAAGKLTWADF (listed as Blattella germanica) | 58.5 | 5.7 | 
NIACLLHNKYDSTKS (listed as Blattella germanica) | 61.0 | 2.9 | 
NLEIDMIVDTISDFR | 19.1 | 2.9 | 
NTTFSNASAVIQEFL | 4.2 | 5.7 | 
NVIYSQNSFLPRATT | 3.8 | 1.4 | 
NYAIVEGCPAAANGH (listed as Blattella germanica) | 64.6 | 1.4 | 
PAIKAWVAKRPPTDL | 18.7 | 10.0 | 
PAYFKMNSPSLWKYN (listed as Blattella germanica) | 56.1 | 4.3 | 
PKSMLLNIFTNNLGR (listed as Blattella germanica) | 52.5 | 7.1 | 
PLKKETIPYYTKKFD | 14.2 | 5.7 | 
PNLKPSMPFGKTPVL | 4.2 | 2.9 | 
PVDQIIAIATDYLAN | 7.5 | 2.9 | 
QDVHKKLREWLSKNV | 8.5 | 1.4 | 
QIIAIATDYLANDAE | 7.5 | 2.9 | 
QKGYMVSSMTDLWEA | 13.9 | 8.6 | 
QKKWDPLKKETIPYY | 7.7 | 4.3 | 
QPNLKALREKVLGLP | 6.5 | 5.7 | 
QQFISSEMVEPKEAS | 6.8 | 2.9 | 
QTHQSVAISRYLGKQ | 4.3 | 4.3 | 
QTLFLLLLLLAAVSA | 3.2 | 1.4 | 
QVYRRLVTAVNDIEK | 44.1 | 5.7 | 
RCGRSMQGYPFNPCL | 20.4 | 10.0 | 

Substance | Average Magnitude of Response | Response Rate per Subject | other results
RCNNVGIRIYVDVVL | 13.0 | 2.9 | 
RDMVRRCNNVGIRIY | 5.2 | 5.7 | 
RGNNAIKWLVNFGVG | 15.0 | 5.7 | 
RHNSAYKLHFNAFEY | 44.0 | 1.4 | 
RIKAFLALVECPCNK | 4.2 | 1.4 | 
RILLRLHRCFQVLGR | 13.5 | 1.4 | 
RLFGAEVGWLALHHN | 35.5 | 1.4 | 
RSEERLATATAKLAE | 13.3 | 1.4 | 
RVPFSHDDRLGFLTF | 34.2 | 7.1 | 
RWRQIFNMVGFRNAV (listed as Blattella germanica) | 61.7 | 11.4 | 
Receptor for activated protein kinase C [RACK1] |  |  | % (percentage of subjects responding to given antigen) (AR): —; SFC (mean magnitude of response) (AR): —; % (percentage of subjects responding to given antigen) [1]: 9%; SFC (mean magnitude of response) [1]: 19 SFC; % (percentage of subjects responding to given antigen) (Controls): 2%; SFC (mean magnitude of response) (Controls): 30 SFC; % (percentage of subjects responding to given antigen) (IA): 12%; SFC (mean magnitude of response) (IA): 31 SFC; % (percentage of subjects responding to given antigen) (MMA): 11%; SFC (mean magnitude of response) (MMA): 3 SFC; % (percentage of subjects responding to given antigen) (SA): —; SFC (mean magnitude of response) (SA): —; T cell reactivity (cytokine release) to NBGA, in words: Significant reactivity
SEVTALNRQIGGTPI | 3.9 | 2.9 | 
SHVHFRFVPSAAVEF | 3.3 | 1.4 | 
SINLMFSQMYHAQLA | 4.3 | 1.4 | 
SPYFVTNTEKMITEF | 13.6 | 2.9 | 
SSLFQVANQYTGILY | 50.2 | 10.0 | 
STSCNVVVASQECVG | 4.2 | 4.3 | 
STSLVKAHSMRNSAS | 19.9 | 4.3 | 
SVNATVVRLQSWQSE | 4.1 | 2.9 | 
TGILYKARLSLDRNE | 4.3 | 2.9 | 
THQFNVAGSVTVDKT | 5.6 | 2.9 | 
TIPYYTKKFDEVVKA (listed as Blattella germanica) | 311.6 | 11.4 | 
TKKFDEVVKANGGYL | 24.3 | 4.3 | 
Triosephosphate isomerase [TPI] |  |  | % (percentage of subjects responding to given antigen) (AR): 6%; SFC (mean magnitude of response) (AR): 13 SFC; % (percentage of subjects responding to given antigen) [1]: 11%; SFC (mean magnitude of response) [1]: 31 SFC; % (percentage of subjects responding to given antigen) (Controls): 2%; SFC (mean magnitude of response) (Controls): 17 SFC; % (percentage of subjects responding to given antigen) (IA): 6%; SFC (mean magnitude of response) (IA): 6 SFC; % (percentage of subjects responding to given antigen) (MMA): 11%; SFC (mean magnitude of response) (MMA): 83 SFC; % (percentage of subjects responding to given antigen) (SA): 23%; SFC (mean magnitude of response) (SA): 54 SFC; T cell reactivity (cytokine release) to NBGA, in words: Significant reactivity
VAISRYLGKQFGLSG (listed as Blattella germanica) | 94.9 | 8.6 | 
VEALFLLMKADPSIH | 4.2 | 1.4 | 
